Data from patent US20020115669A1 (published 2002).

melting point: 187 to 190 °C (dec.)
Structure (SMILES): CC(=O)NC[C@H]1CN(c2ccc(/C=C(\Br)c3ccc(C(C)=O)s3)c(F)c2)C(=O)O1
